Reference: paper PMC4357715, “The beta hairpin structure within ribosomal protein S5 mediates interplay between domains II and IV and regulates HCV IRES function” (Nucleic Acids Research, 2015)

How the values were obtained:
HCV IRES = experiment: Ribosomal assembly assay on HCV IRES in RRL; format: biochemical, Hepatitis C Virus; conditions: wild-type 32P-labelled HCV IRES RNA; 2 mM GMP-PNP or 20 mM cycloheximide
Procedure: ^32P-labelled wild type or mutant HCV IRES RNA (3 × 10^5 c.p.m.) was added to 25 μl of translation reaction containing 17.5 μl of rabbit reticulocyte lysate (RRL). The reactions were incubated at 30°C for 15 min and diluted to 150 μl with ice cold gradient buffer (20 mM Tris–HCl pH 7.5, 100 mM KCl, 3 mM MgCl2, 1 mM Dithiothreitol (DTT)) and overlaid in 5–30% sucrose gradient. The ribosomal complexes were separated by ultracentrifuge for 3 h at 30 000 rpm at 4°C in TH-641 rotor (Thermo Scientific). Fractions (330 μl) were manually collected from the top of the tube and radioactivity was measured in a liquid scintillation counter. To validate the peaks, in vitro translation was performed in presence of 2 mM 5′-guanylyl imidodiphosphate (GMP-PNP) or 20 mM of cycloheximide and peaks were resolved on sucrose gradient.
We confirmed the 48S and 80S peaks in the ribosome assembly profile by using GMPPNP and cycloheximide respectively. As expected GMPPNP and cycloheximide stalled translation at the 48S and 80S stages, respectively (Figure 3A).
Figure 3. Ribosome assembly on wild type and mutant HCV IRES. (A) Ribosome assembly on wild-type ^32P-labelled HCV IRES RNA in the presence of either cycloheximide or GMPPNP. […] Different fractions were collected and the radioactivity associated with each fraction was measured. […]

[1] = test system: global protein synthesis in Huh7 cells; experiment: 35S-Methionine metabolic labelling; format: cell-based; conditions: cycloheximide 100 μg/ml, positive control
Procedure: Forty-eight hours after transfection, medium was replaced with serum free DMEM lacking methionine and cysteine (Sigma) and incubated for 1 h. Then 100 μci of ^35S in vivo pro-twin label mix (BRIT) was added to each well and cells were labelled for 30 min. Cells treated with 100 μg/ml concentration of cycloheximide were taken as positive control for global translation shut down. After labelling the cells, media was removed and the cells were washed three times with ice-cold phosphate buffered saline (PBS). Cells were harvested and lysed in the 100 μl of RIPA buffer lacking SDS (50 mM Tris–HCl pH 7.4, 150 mM NaCl, 1 mM EDTA, 1% NP-40, 0.25% sodiumdeoxycholate) containing protease inhibitors (complete EDTA-free protease inhibitor, Roche). The protein concentration of the lysate was then estimated by Bradford assay. Twenty-five micrograms of protein from each sample was mixed with 0.1 mg BSA and ice-cold TCA was added to a final concentration of 20%. The samples were incubated for 30 min on ice and loaded on prewet (with 20% TCA) glass microfibre filters (Whatmann). The filters were washed with 1 ml of 20% TCA twice and once with 1 ml of 100% ethanol. The filters were then incubated overnight with 4 ml of scintillation liquid and counts were taken.
Figure 6. Role of RPS5 in HCV translation and replication. […] Huh7 cells were transfected with siNSP RNA or siRPS5 RNA. […]

Compound	stage at which translation is stalled (HCV IRES)	reduction of protein levels (35S-methionine incorporation) [1]
Nc1nc2c(ncn2[C@@H]2O[C@H](COP(=O)(O)OP(=O)(O)NP(=O)(O)O)[C@@H](O)[C@H]2O)c(=O)[nH]1 [GMPPNP, 5′-guanylyl imidodiphosphate]	48S	
C[C@@H]1C[C@@H]([C@H](O)CC2CC(=O)NC(=O)C2)C(=O)[C@@H](C)C1 [cycloheximide]	80S	~75%
